# Literature values in patent US20140031355A1, “HETEROCYCLIC COMPOUNDS AND THEIR USES” (Amgen Inc., priority 2010, published 2014).
# Key:
# [1] = test system: passive cutaneous anaphylaxis (PCA); details: absence of functional delta (IC 87114 and p110δ D910A mice)
# [2] = test system: ovalbumin-induced airway inflammation
# p110δ = target: T1, p110δ (Homo sapiens, UniProt O00329)
# T1 sequence (O00329 1-1044): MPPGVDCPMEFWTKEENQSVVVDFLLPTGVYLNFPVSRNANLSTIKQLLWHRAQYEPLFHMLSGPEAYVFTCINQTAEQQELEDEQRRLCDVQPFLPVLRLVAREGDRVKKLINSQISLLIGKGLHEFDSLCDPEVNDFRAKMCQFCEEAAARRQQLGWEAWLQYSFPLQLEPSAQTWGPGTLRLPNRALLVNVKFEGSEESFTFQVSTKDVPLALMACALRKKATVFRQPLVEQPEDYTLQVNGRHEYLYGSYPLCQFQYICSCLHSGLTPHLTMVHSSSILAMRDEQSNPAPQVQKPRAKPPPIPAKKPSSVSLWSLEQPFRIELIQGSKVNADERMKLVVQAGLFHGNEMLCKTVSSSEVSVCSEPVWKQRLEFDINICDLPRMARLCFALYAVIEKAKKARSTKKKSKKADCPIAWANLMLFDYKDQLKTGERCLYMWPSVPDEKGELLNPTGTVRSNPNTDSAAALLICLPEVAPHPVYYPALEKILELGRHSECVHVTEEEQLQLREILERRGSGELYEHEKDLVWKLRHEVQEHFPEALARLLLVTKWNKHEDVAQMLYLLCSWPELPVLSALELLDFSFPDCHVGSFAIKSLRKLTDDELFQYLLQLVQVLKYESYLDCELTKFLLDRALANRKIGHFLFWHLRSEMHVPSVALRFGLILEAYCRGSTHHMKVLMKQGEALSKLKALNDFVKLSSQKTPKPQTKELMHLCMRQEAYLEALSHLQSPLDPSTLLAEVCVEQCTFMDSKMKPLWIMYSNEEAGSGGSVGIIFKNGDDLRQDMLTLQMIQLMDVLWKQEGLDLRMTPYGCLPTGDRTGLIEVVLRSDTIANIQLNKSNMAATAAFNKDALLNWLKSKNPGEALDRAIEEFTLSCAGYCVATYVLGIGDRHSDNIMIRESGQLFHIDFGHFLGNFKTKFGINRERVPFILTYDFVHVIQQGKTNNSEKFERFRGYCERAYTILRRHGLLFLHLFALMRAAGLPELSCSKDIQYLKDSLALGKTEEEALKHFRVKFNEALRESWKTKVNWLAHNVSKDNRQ
# [3] = test system: systemic lupus erythematosis model; details: in vivo
# [4] = test system: rheumatoid arthritis model; details: in vivo
smiles,measurement,setting,value
Cc1ccccc1-n1c(Cn2cnc3c(N)ncnc32)nc2cccc(C)c2c1=O [IC87114],passive cutaneous anaphylaxis (PCA),[1],significantly reduced
same,inflammation and disease in a murine model of asthma,[2],significantly ameliorate
same,inhibits p110δ,p110δ,high nanomolar range (triple digit)
same,activity against any protein kinases tested,protein kinases,no activity
O=C1NC(=O)/C(=C\c2ccc3nccnc3c2)S1 [AS 605240],onset of disease in a model of systemic lupus erythematosis,[3],delay onset of disease
same,efficacy in a mouse model of rheumatoid arthritis,[4],efficacious
